Experimental findings from PMC7433010, “Exploration of multi‐target effects of 3‐benzoyl‐5‐hydroxychromen‐2‐one in Alzheimer’s disease cell and mouse models” (Aging Cell, 2020) are described below.

The series is described as follows: Cytotoxicity by survived cell number in 293 cells expressing ∆K280 TauRD‐DsRed. In kind it is cell-based. As to conditions: human; for IC50 at 3 days: 293 cells expressing ∆K280 TauRD‐DsRed for 3 days; for viability at 3 days, 1 µM: % of cells without treatment. The source says: In ∆K280 TauRD‐DsRed 293 cells, a proaggregant (ΔK280) Tau repeat domain (TauRD) containing residues 244–372 of the full‐length 4R2N Tau441 was fused in‐frame with DsRed fluorophore. Compared to the wild‐type TauRD, the poorly folded ΔK280 TauRD formed aggregates, which adversely affected the folding of fused DsRed and thus decreased DsRed fluorescence, as also evidenced by increase in thioflavin S fluorescence emission (Chang et al., 2017). Thioflavin S is a reporter dye for studies of Tau toxicity and pharmacologic prevention in cell model of tauopathy (Pickhardt et al., 2017). It binds to amyloid fibrils but not monomers and gives a distinct increase in fluorescence emission. Inhibition of Tau aggregation may improve DsRed misfolding, leading to increased fluorescence in ΔK280 TauRD‐DsRed‐expressing cells. Utilizing the established Tet‐on ΔK280 TauRD‐DsRed 293 cells (Chang et al., 2016), licochalcone A and LM compounds were tested for effects of reducing Tau misfolding and anti‐oxidation (Figure S2a). Congo red was included for comparison. […] In the following experiments, DsRed fluorescence was measured in wells containing at least 80% viable cells. […] Due to the features of their effectiveness and less cytotoxicity, licochalcone A (1 μM) and LM‐031 (1 μM) were chosen as the candidate compounds for the following experiments. […] Representative DsRed and thioflavin S fluorescent images of ∆K280 TauRD‐DsRed‐expressing cells untreated or treated with congo red (10 µM), licochalcone A (1 µM), or LM‐031 (1 µM) are shown in Figure S2d.
DsRed fluorescence of proaggregant ∆K280 TauRD-DsRed 293 cells was evaluated to reflect Tau aggregation. On day 1, cells were seeded on a 96-well plate in a density of 0.8 × 10^4 cells/well. […] On the fifth day, the cells were stained with Hoechst 33342 (0.1 µg/ml; Sigma-Aldrich) for 30 min to identify total cell number; DsRed fluorescence images (543 nm excitation and 593 nm emission) were automatically captured by using the ImageXpressMICRO high-content imaging system (Molecular Devices, Sunnyvale, CA, USA) and analyzed using MetaXpress image acquisition and analysis software (Molecular Devices). In addition, the cells were fixed with paraformaldehyde (4% in PBS) for 15 minutes, permeabilized with methanol (80%) for 6 minutes at -20°C, incubated with thioflavin S (0.02%; Sigma-Aldrich) and 4’,6-diamidino-2-phenylindole (DAPI) (0.1 μg/ml; Sigma-Aldrich) for 5 minutes, and washed in ethanol (50%). Thioflavin S images ([…]) were captured and analyzed as described. In general, 2 × 10^4 cells in each biological replicate were analyzed.
Figure S2. ΔK280 TauRD-DsRed 293 cells. (a) Experimental flow chart. Cells were plated on day 1. On day 2, the cells were treated with congo red or test compounds for 8 h; addition of doxycycline (Dox; 1 µg/ml) followed. DsRed/thioﬂavin S fluorescence, ROS, and caspase 3 activity were assessed on day 5. (b) Cytotoxicity of the test compounds against 293 cells expressing ∆K280 TauRD-DsRed for 3 days using the survived cell number (n = 3). IC50 values are listed. (c) Dose response curves of LM-031 based on DsRed fluorescence measurement. (d) Fluorescent images of ΔK280 TauRD-DsRed 293 cells untreated or treated with congo red (10 µM), licochalcone A (1 µM), or LM-031 (1 µM). Nuclei were counterstained with Hoechst 33342 (blue), and merged DsRed and Hoechst 33342 signals were shown. In addition, tau aggregation was monitored by staining with thioﬂavin S (green).

Where [1] appears, read: Tet-on ∆K280 TauRD-DsRed 293 cells (expression induced), ∆K280 TauRD‐DsRed‐expressing 293 cells.

Regarding `COc1ccc(C(=O)/C=C/c2cc(Br)ccc2O)cc1` [LM‐004], the IC50 at 3 days is 5 µM. `O=C(c1ccccc1)c1cc2c(O)cccc2oc1=O` [LM‐031, 3‐benzoyl‐5‐hydroxychromen‐2‐one] came in with an IC50 at 3 days of 56.6 µM. This compound yielded a viability at 3 days, 1 µM under setting [1] of 94 to 97%. In addition, where the note is “Tet-on ∆K280 TauRD-DsRed 293 cells (expression induced), 10 μM, ∆K280 TauRD‐DsRed‐expressing 293 cells”, the viability at 3 days, 10 µM turned out to be 91%. `Nc1c(/N=N/c2ccc(-c3ccc(/N=N/c4cc(S(=O)(=O)O)c5ccccc5c4N)cc3)cc2)cc(S(=O)(=O)O)c2ccccc12` [congo red, reference compound] returned an IC50 at 3 days of 36.9 µM. As to `C=CC(C)(C)c1cc(/C=C/C(=O)c2ccc(O)cc2)c(OC)cc1O` [licochalcone A, reference compound], the IC50 at 3 days stood at 5.9 µM. Further, the viability at 3 days, 1 µM under setting [1] fell in the range of 94 to 97%.

What is called IC50 is the concentration that gives 50% inhibition. A lower IC50 goes with inhibition by little substance. Usually viability stands for a per cent measure of how many cells are alive, often set against a control. The low end stands for more harm to the cells, the high end for less harm to the cells.
